According to patent publication US10934346B2, “Modified T cell comprising a polynucleotide encoding an inducible stimulating molecule comprising MyD88, CD40 and FKBP12” (priority 2014, dated 2021):
Where two headings read alike, the source gives them in different places.

What was measured:
cells = test: Amount of AP1903 needed in vitro for effective signaling of cells; format: cell-based
Procedure: The fixed dose of AP1903 for injection used, for example, may be 0.4 mg/kg intravenously infused over 2 hours. The amount of AP1903 needed in vitro for effective signaling of cells is about 10-100 nM (MW: 1412 Da). This equates to 14-140 μg/L or ˜0.014-0.14 mg/kg ([…]). The dosage may vary according to the application, and may, in certain examples, be more in the range of 0.1-10 nM, or in the range of 50-150 nM, 10-200 nM, 75-125 nM, 100-500 nM, 100-600 nM, 100-700 nM, 100-800 nM, or 100-900 nM. Doses up to 1 mg/kg were well-tolerated in the Phase I study of AP1903 described above.

[1] = system: JNK, Akt, RelA, ERK and p38 MAPK; test: Phosphorylation of downstream signaling molecules (Milliplex MAP assay, immunoblotting); format: cell-based, human; details: 10 nM rimiducid, iMC T cells
Procedure: Immunoblotting. Primary human T cells transduced with either SFG-FKBP-2A-ΔCD19 or SFG-iMC-2A-ΔCD19 (4×10^6 per point) were cultured for the indicated time points in a 37° C. water bath with either 10 nM rimiducid, 250 nM each PMA and ionomycin, or media alone. Media as removed by aspiration after centrifugation at 6000 rpm for 2 min at 4° C. Cytoplasmic extracts were prepared by lysis in 100 μl radioimmuno-precipitation assay buffer (50 mM Tris, 150 mM NaCl, 1% NP40, 2 mM EDTA, 0.1% SDS, 0.25% sodium deoxycholate) containing 1×MS-SAFE (Roche). Lysates were incubated on ice for 10 min and cytoplasmic fractions were cleared by centrifugation at 11,000 rpm for 20 min at 4° C. […] Bound Abs were detected by HRP-conjugated goat-anti-rabbit IgG Ab (Pierce), followed by ECL (Pierce) and detection on a Gel Logic imaging system (Carestream). […]
Phosphorylated epitopes were detected in Assay Buffer 2 (MILLIPLEX MAP kit) with antibodies specific for p-RelA(S536), p-Akt(S473), p-p38(T180/Y182), p-JNK(T183/Y185), p-ERK1/2(T202/Y204) (custom MILLIPLEX Magnetic Bead MAPMATE kit; Millipore) or GAPDH as a control for total protein content. Fold increase in phosphorylation was calculated by net MFI of rimiducid treatment at a given time point divided by the net MFI of the corresponding non-stimulated time point. […]

iMC-expressing T cells = test: Survival and growth of iMC-transduced T cells with weekly rimiducid, with or without IL-2; format: cell-based, human
Procedure: FIGS. 8A-8C provide assay results of iMC signaling in primary T cells induces cell survival in the absence of IL-2. FIG. 8A and FIG. 8B) FKBP and iMC transduced T cells were cultured in media supplemented with or without 100 U/ml IL-2 and stimulated on a weekly basis with 10 nM rimiducid (CID) and measured for growth by cell counting. FIG. 8C) iMC-modified T cells cultured in media without IL-2, with and without CID stimulation, were measured for viability by flow cytometry (SSC, FSC) after 42 days in culture. * indicates p-value <0.05.
The phosphorylation of key downstream signaling molecules, including JNK, Akt, RelA, ERK and p38 MAPK was measured in the induced iMC T cells.

[2] = system: T cells transduced with RV-172 (iMC); test: AP1903-induced T cell activation, 27-plex cytokine/chemokine bead array; format: cell-based, human; details: 10 nM AP1903, 24 hours, RV-172 T cells
Procedure: 5. To assess AP1903-dependent T cell activation of T cells, 1×10^5 non-transduced (NT) or T cells transduced with the control retrovirus (RV-171) or the retrovirus containing iMC (RV-172) were plated in triplicate in 96-well plates and cultured at 37° C. 5% CO2 with media alone, or media containing 10 nM AP1903. 6. After 24 hours, the cells were gently mixed and the plate was centrifuged. Supernatant was then collected and plated into a BIOPLEX Human Cytokine/Chemokine 27-plex plate, which measures the following cytokines and chemokines: • a. Basic-FGF, G-CSF, GM-CSF, IFN-gamma, IL-1Ra, IL-1beta, IL-2, IL-4, IL-5, IL-6, […], IL-7, […], IL-9, IL-10, IL-12p70, IL-13, IL-15, IL-17RA, eotaxin, IP10, MCP-1, MIP-1alpha, MIP-1beta, PDGF-bb, RANTES, TNF-alpha and VEGF. • b. The cytokines and chemokines in the supernatants were subsequently measured and compared to standards in the plate using a BIOPLEX MAGPIX Multiplex Reader.
T cells were stimulated with 10 nM AP1903 for 24 hours then supernatants were assayed for cytokine levels.

[3] = cited from earlier work
Capan-1-GFP tumor cells = test: Coculture of CAR/iMC T cells with Capan-1-GFP tumor cells; details: 10 nM rimiducid, PSCA.ζ CAR and iMC T cells, 7 days
Procedure: FIG. 2C) Non-transduced and PSCA.ζ CAR T cells modified with either FKBP or iMC were cocultured with Capan-1-GFP tumor cells at a 1:1 T cell to tumor cell ratio with and without 10 nM rimiducid. Tumor cell and T cell frequency were assessed after 7 days by flow cytometry. Tumor cell frequency was assessed by flow cytometry by measuring CD3^−GFP^+ tumor cells by SSC/GFP gating. Enrichment of T cells coexpressing iMC and CAR were assessed in coculture assays by flow cytometry by measuring CD19-PE and anti-CAR-APC frequency, respectively. FIG. 2D) T cells were subsequently assessed for CD25 expression and measured for T cell proliferation (FIG. 2E) using flow cytometry and cell enumeration.
FIG. 12B) Non-transduced T cells and T cells transduced with FKBP^+PSCA.ζ, FKBP^+PSCA.28.ζ) or iMC^+PSCA.ζ were cocultured with Capan-1-GFP tumor cells at a 1:1 effector:target ratio for 7 days and analyzed for residual tumor cells (CD3^−GFP^+) by flow cytometry.
Coculture experiment. […] After 7 days, all residual cells were collected by trypsinization, counted and stained with CD3, CD19 and Fc-specific antibodies and analyzed by flow cytometry. […]

In the case of `CC[C@H](C(=O)N1CCCC[C@H]1C(=O)O[C@H](CCc1ccc(OC)c(OC)c1)c1cccc(OCC(=O)NCCNC(=O)COc2cccc([C@@H](CCc3ccc(OC)c(OC)c3)OC(=O)[C@@H]3CCCCN3C(=O)[C@@H](CC)c3cc(OC)c(OC)c(OC)c3)c2)c1)c1cc(OC)c(OC)c(OC)c1` (relative stereo) [rimiducid, 2-Piperidinecarboxylic acid, 1-[(2S)-1-oxo-2-(3,4,5-trimethoxyphenyl)butyl]-, 1,2-ethanediylbis [imino(2-oxo-2,1-ethanediyl)oxy-3,1-phenylene[(1R)-3-(3,4-Dimethoxyphenyl)propylidene]] ester, [2S-[1(R*),2R*[S*[S*[1(R*),2R*]]]]]-(9Cl)], the “amount needed in vitro for effective signaling of cells” value (cells) was 10 to 100 nM, the “amount needed for effective signaling, converted” value (cells; MW: 1412 Da) was 14 to 140 µg/L and the “onset of signaling after exposure” value [1] was ≤ 15 min. The “phosphorylation of signaling pathways” value [1] was “each of these signaling pathways show increased phosphorylation in T cells, with MAPK and JNK showing the greatest rimiducid-dependent activation”, the T cell proliferation (iMC-expressing T cells; IL-2 withdrawn) was “no proliferation was observed” and the “T cell survival and expansion” value (iMC-expressing T cells; in the presence of exogenous IL-2) was “increased T cell survival and cell expansion”. The “cytokines and chemokines induced” value [2] was “GM-CSF, IFN-gamma, IL-13, IL-4, IL-5, IL-6, IL-8, IL-1beta, IL-12p70, IP10, MIP-1alpha, MIP-1beta, RANTES, and TNF-alpha”, the “cytokines and chemokines not induced” value [2] was “Basic-FGF, G-CSF, IL-1Ra, IL-2, IL-7, IL-9, IL-10, IL-15, IL-17RA, eotaxin, MCP-1, PDGF-bb and VEGF” and the “plasma levels versus dose” value ([3]; 0.01, 0.05, 0.1, 0.5 and 1.0 mg/kg) was “directly proportional to dose”. The “plasma level as % of maximal concentration” value (shortened to “plasma level as %”) ([3]; 0.5 hours post-dose) was “approximately 18%”, the “plasma level as %” value ([3]; 2 hours post-dose) was ~7% and the “plasma level as %” value ([3]; 10 hours post-dose) was ~1%. The well-tolerated doses ([3]; Phase I study) was “up to 1 mg/kg”, the “mean Cmax” value ([3]; plasma, over the 0.01-1.0 mg/kg dose range, infused IV over 2 hours) was 10 to 1275 ng/mL and the “Capan-1-GFP tumor cell elimination” value (Capan-1-GFP tumor cells) was “further enhanced Capan-1-GFP elimination”.
